The source of these data is PubChem BioAssay AID743396 (Broad Institute, 2014).

Activity calls are given as the source filed them.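 How the source made its calls: active means fitted curve reaches a 40% rise in fluorescent cells at or below the top valid dose; inactive means opposite-direction effect, or the rest.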

The first assay in a line: autofluorescent compounds in non-GFP fibroblasts, dose response, artefact control for X-chromosome reactivation project, imaging, mTEFS fibroblasts, cherry-pick (AID 743396).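 Further: raw share of Hoechst-counted cells scored GFP positive without control normalization.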 The settings on record: mTEFS fibroblasts autofluorescence, GFP-channel imaging, 3 days; at 19.5 µM (top of the series).
As to `Cc1cc(=O)oc2cc3c(cc12)CCCN3`, the % fluorescent cells increase was 0.269% (inactive).

Turning to `C[n+]1c(-c2ccccc2)c2cc(N)ccc2c2ccc(N)cc21`, the % fluorescent cells increase is 0.212% (inactive).

With `Cc1ccc2[nH]c(=S)n(-c3cccnc3)c(=O)c2c1`, the % fluorescent cells increase is 0.016% (inactive).

Staying with this assay, now noted: mTEFS fibroblasts autofluorescence, GFP-channel imaging, 3 days; at 19.5 µM (top of the series); cells pretreated with 5-aza-dC.
`C[C@H]1CCCCO[C@@H](CN(C)C(=O)Nc2ccc(C(F)(F)F)cc2)[C@@H](C)CN([C@@H](C)CO)C(=O)c2cc(NC(=O)CCC(F)(F)F)ccc2O1`: the % fluorescent cells increase is -0.166% (inactive).

Turning to `COC(=O)c1ccc(CNC(=O)COC(=O)c2cc(Cl)ccc2O)cc1`, the % fluorescent cells increase is 0% (inactive).

Regarding `Cn1c(=O)[nH]c(=O)c2c1nc1n2CCCN1Cc1ccccc1`, the % fluorescent cells increase is -0.011% (inactive).

Regarding `O=C(NNC(=O)c1cc2ccccc2o1)c1ccc(Cl)cc1`, the % fluorescent cells increase is 0.148% (inactive).

On to `CCc1ccc(N2CC(C(=O)Nc3cc(C)on3)CC2=O)cc1` (configuration not stated), for which the % fluorescent cells increase was 0.015% (inactive).

On to `Cc1cc(=O)[nH]c(N/N=C/c2cc(C)n(CC(F)(F)F)c2C)n1`, for which the % fluorescent cells increase was 0% (inactive).

Turning to `Cc1ccc(C)c(CSC2=NN3CCCC(=O)N=C3S2)c1`, the % fluorescent cells increase is -0.006% (inactive).

In the case of `CC1Oc2ccccc2C=C1/C=N\NC(=O)c1cccnc1` (configuration not stated), the % fluorescent cells increase was 0% (inactive).

As for `CCCNC(=O)N1CC2(CN(S(C)(=O)=O)C2)c2c(n(C)c3cc(OC)ccc23)[C@H]1CO`, the % fluorescent cells increase was 0.032% (inactive).

As to `CCOC(=O)c1sc(Nc2ccc(Br)cc2)nc1C`, the % fluorescent cells increase is 1.37% (inactive).

Regarding `CN(Cc1nccn1C)C(=O)CC1C(=O)NCCN1CC(c1ccccc1)c1ccccc1` (configuration not stated), the % fluorescent cells increase was 0.889% (inactive).

Take `C[C@@H]1CN([C@@H](C)CO)S(=O)(=O)c2ccc(C#CC3CC3)cc2O[C@H]1CN(C)Cc1ccc(F)cc1`: the % fluorescent cells increase is 0.107% (inactive).

For the compound `CNc1ncnc(Sc2ccc(Cl)cc2)c1[N+](=O)[O-]`, the % fluorescent cells increase is 0% (inactive).

On to `COc1ccc(NC(=O)CCc2ccccc2)cc1S(=O)(=O)N1CCCCC1`, for which the % fluorescent cells increase was 0.183% (inactive).

Consider `Brc1ccc(-c2cn3ccccc3n2)cc1`, for which the % fluorescent cells increase was 0% (inactive).

As for `CCOc1ccccc1N1C(=O)CC(Sc2nccc(C)n2)C1=O` (configuration not stated), the % fluorescent cells increase is 0% (inactive).

`ClC1CCCCC1n1nnc2ccccc21` (configuration not stated): the % fluorescent cells increase is 0.006% (inactive).

Consider `COCCN(C(=S)Nc1cccc(C)c1)C(C)c1cccnc1` (configuration not stated), for which the % fluorescent cells increase was -0.004% (inactive).

Turning to `Nc1nnc(SCC(=O)c2ccc([N+](=O)[O-])cc2)s1`, the % fluorescent cells increase was -0.007% (inactive).

Consider `CCN1CCN(c2cc(C)c3cc(NC(=O)c4cccs4)ccc3n2)CC1`, for which the % fluorescent cells increase was 0.257% (inactive).

`Cc1ccnc(NS(=O)(=O)c2ccc3c(c2)CCO3)c1`: the % fluorescent cells increase was 0.175% (inactive).

For `O=C(NCCO)/C(=C/c1ccco1)NC(=O)c1ccco1`, the % fluorescent cells increase is 0.007% (inactive).

Take `COC(=O)c1cnn(-c2ccccc2)c1N`: the % fluorescent cells increase was 0.008% (inactive).

As to `S=C(SSC(=S)N1CCOCC1)N1CCOCC1`, the % fluorescent cells increase was 0% (inactive).

As for `CCOC(=O)/C(C#N)=C/C=C1/C=CC=CN1C`, the % fluorescent cells increase is 0.015% (inactive).

Consider `O=[N+]([O-])c1ccc(/C=N/NC(=S)Nc2ccc(Cl)cc2Cl)s1`, for which the % fluorescent cells increase was 0.614% (inactive).

As to `Cc1cc2c(NC(=O)Nc3ccc(C(C)(C)C)cc3)cccc2nn1`, the % fluorescent cells increase is 0.237% (inactive).

For the compound `NC(=NC(=O)c1cccc(C(F)(F)F)c1)c1ccc(C(F)(F)F)cn1`, the % fluorescent cells increase was 0% (inactive).

On to `O=C(c1ccccc1Cl)N1CCSCCS1(=O)=O`, for which the % fluorescent cells increase was 0% (inactive).

Regarding `CCCN1CCN(C(=O)C2CCN(c3nnc(C)c4c(C)n(-c5ccc(C)cc5)nc34)CC2)CC1`, the % fluorescent cells increase is 0.895% (inactive).

On to `NS(=O)(=O)c1cccc(-n2cnnn2)c1`, for which the % fluorescent cells increase was 0% (inactive).

With `O=C(CCN1CCCCC1)NCC[C@@H]1CC[C@H](NC(=O)C2CCCCC2)[C@H](CO)O1`, the % fluorescent cells increase was 0.045% (inactive).

For `COc1ccc(C(=O)Nc2ccc3oc(-c4cccc(F)c4)nc3c2)cc1OC`, the % fluorescent cells increase is -0.003% (inactive).

For `Cc1noc(C)c1NC(=O)N[C@H]1CC[C@H](CC(=O)N2CCN(C)CC2)O[C@H]1CO`, the % fluorescent cells increase was 0.024% (inactive).

Turning to `C[C@@H]1CCCCO[C@H](CN(C)Cc2ccc3c(c2)OCO3)[C@@H](C)CN([C@H](C)CO)C(=O)c2cc(NS(=O)(=O)c3ccc(F)cc3)ccc2O1`, the % fluorescent cells increase is 0.175% (inactive).

For the compound `CCN(CC(=O)Nc1sc2c(c1C#N)CCCC2)CC(=O)NC1CCS(=O)(=O)C1` (configuration not stated), the % fluorescent cells increase is 0.225% (inactive).

As for `Cc1ccc(-c2nc3ccc(Br)cn3c2Cc2ccccc2C(F)(F)F)cc1`, the % fluorescent cells increase is 0.042% (inactive).

Regarding `O=c1c2ccccc2nnn1Cc1ccc2ccccc2c1`, the % fluorescent cells increase is 0.015% (inactive).

For the compound `COc1ccccc1-c1cc(C(=O)N2CCCc3ccccc32)no1`, the % fluorescent cells increase was 0.006% (inactive).

For `CC1=NN(c2ccc(C)c(C)c2)C(=O)/C1=C\C=C\c1ccc([N+](=O)[O-])o1`, the % fluorescent cells increase was -0.007% (inactive).

For `COCCCn1c(C)cc(C(=O)COC(=O)CCc2nc3ccccc3c(=O)[nH]2)c1C`, the % fluorescent cells increase is 3.52% (inactive).

As for `C[C@@H]1CN([C@@H](C)CO)C(=O)c2cc(NS(=O)(=O)c3ccccc3)ccc2O[C@@H](C)CCCCO[C@@H]1CN(C)Cc1ccc2c(c1)OCO2`, the % fluorescent cells increase was 0% (inactive).

Regarding `C(CCCN1CCCCC1)CCN1CCCCC1`, the % fluorescent cells increase was 0.016% (inactive).

Turning to `Cc1nn2c(NCCCN(C)C)c3c(nc2c1-c1ccccc1)CCCC3`, the % fluorescent cells increase is -0.007% (inactive).

`O=C(CC1CC1)N1CC(=O)N2[C@@H](CO)[C@H](c3ccc(C#Cc4ccc(F)cc4)cc3)[C@@H]2C1`: the % fluorescent cells increase was -0.043% (inactive).

As for `COc1ccc2c3c([nH]c2c1)[C@H](CO)N(C(=O)Nc1ccc(F)cc1)CC31CN(CC2CC2)C1`, the % fluorescent cells increase is 0.116% (inactive).

As for `O=C(N/N=C/c1ccc(O)c2ncccc12)c1cccc(Br)c1`, the % fluorescent cells increase was -0.003% (inactive).

With `COc1ccccc1N1CCN(C(=O)CN2C(=O)c3cccc4cccc(c34)C2=O)CC1`, the % fluorescent cells increase was 0.023% (inactive).

With `Cc1ccc(O)c(N=Nc2ccc(S(=O)(=O)N3CCCC3)cc2)c1`, the % fluorescent cells increase is 0% (inactive).

As for `Oc1ccc(Br)cc1C=Nc1ccc2c3c(cccc13)CC2`, the % fluorescent cells increase is 3.42% (inactive).

As for `Cc1cccc(OCC(=O)N(C)c2c(N)n(Cc3ccccc3)c(=O)[nH]c2=O)c1C`, the % fluorescent cells increase was 0.02% (inactive).

Turning to `COc1ccc(-c2nn(-c3ccccc3)cc2C(=O)NC(=S)Nc2cc(Cl)ccc2Cl)cc1`, the % fluorescent cells increase was 2.13% (inactive).

With `COc1ccccc1NC(=O)N[C@H]1C=C[C@@H](CC(=O)N[C@@H](C)c2ccccc2)O[C@@H]1CO`, the % fluorescent cells increase is 0.342% (inactive).

`O=c1c2cc(-c3ccccc3)sc2nc2n1N=C(c1ccccc1)CS2`: the % fluorescent cells increase was 1.14% (inactive).

As to `Cc1ccc(-c2csc3nc4c5ccccc5c(NCCCN(C)C)nn4c(=O)c23)cc1`, the % fluorescent cells increase is 0% (inactive).

As for `C#Cc1cc(N2CCN(C(=O)c3ccoc3)CC2)n2nc(-c3cccc(Cl)c3)cc2n1`, the % fluorescent cells increase was 7.21% (inactive).

For `Cc1cc(NC(=O)CSc2nnc(-c3c[nH]c4ccccc34)n2-c2ccc(F)cc2)no1`, the % fluorescent cells increase is 0.026% (inactive).

As for `Cc1ccc(-c2[nH]c(=S)[nH]c(=O)c2C#N)cc1`, the % fluorescent cells increase was 0.007% (inactive).

As to `Cc1nnc(-c2ccc(N3CCCCCC3)c([N+](=O)[O-])c2)o1`, the % fluorescent cells increase was 0% (inactive).

Consider `O=C(CCl)N=c1sccn1Cc1cccc2ccccc12`, for which the % fluorescent cells increase was 9.31% (inactive).

With `COc1ccc(C2C(=O)c3ccccc3C2=Nc2ccc(Br)cc2)cc1` (configuration not stated), the % fluorescent cells increase is 0.033% (inactive).

`CC(=O)Nc1ccc(S(=O)(=O)N(C)c2ccc(OCC(=O)NCCc3ccccc3F)cc2)cc1`: the % fluorescent cells increase was 0.014% (inactive).

`COCCNC(=O)CSc1nc2scc(-c3ccccc3)c2c(=O)[nH]1`: the % fluorescent cells increase was 0.106% (inactive).

`Cc1ccsc1C1Nc2ccccc2-c2nc3ccccc3n21` (configuration not stated): the % fluorescent cells increase is 0.699% (inactive).

For `O=C(NNC(=O)c1ccccc1Cl)c1ccccc1Cl`, the % fluorescent cells increase was 0.057% (inactive).

In the case of `COc1ccc2c3c(n(C)c2c1)[C@@H](CO)N(C(=O)NC(C)C)CC31CN(C(C)=O)C1`, the % fluorescent cells increase is -0.138% (inactive).

Turning to `CN(Cc1nc(CCc2ccccc2)no1)Cc1cccs1`, the % fluorescent cells increase is 0.295% (inactive).

Take `Cc1nn(-c2ccccc2)c2ncc(C(=O)c3cc(Cl)ccc3O)cc12`: the % fluorescent cells increase is 0% (inactive).

On to `Cc1ccc(N(C)C(=O)C2CCN(S(=O)(=O)c3ccc4c(c3)oc(=O)n4C)CC2)cc1`, for which the % fluorescent cells increase is -0.007% (inactive).

Regarding `COC(=O)c1cc(C(=O)N2CCN(c3ccccc3OC)CC2)cc([N+](=O)[O-])c1`, the % fluorescent cells increase is 0% (inactive).

`CCOC(=O)C1CCN(C(=O)c2ccc(NS(=O)(=O)c3ccc(F)cc3C)cc2)CC1`: the % fluorescent cells increase was 0% (inactive).

`Nc1ccccc1Sc1ccc(C(F)(F)F)cc1[N+](=O)[O-]`: the % fluorescent cells increase is 0% (inactive).

`COc1ccc2c(c1)C(C)=CC(C)(C)N2S(=O)(=O)c1ccc(Br)cc1`: the % fluorescent cells increase was 0% (inactive).

The assay is the same for the next values; noted with them: mTEFS fibroblasts autofluorescence, GFP-channel imaging, 3 days; at 21 µM (top of the series); cells pretreated with 5-aza-dC.
As to `Cc1ccc(-c2ccccc2[C@@H]2[C@H](C#N)N(S(C)(=O)=O)[C@H]2CO)cc1`, the % fluorescent cells increase was -0.036% (inactive).
